Patent publication US20250101436A1, “APTAMERS AND SMALL MOLECULE LIGANDS” (MeiraGTx UK II Limited, priority 2021, published 2025)

Test system: 12C6-1 riboswitch
Assay: Firefly luciferase assay, Luci-12C6-1 riboswitch construct in transfected HEK 293 cells
Type: cell-based, human
Settings: HEK 293 cells
Text: Riboswitch construct: Aptamers were synthesized by Integrated DNA Technologies, Inc. The synthesized aptamer sequence, here referred to as aptamer sequence 12C6-1, contains a putative TPP aptamer sequence (AP008955.1/944373-944459; CP030117.1/954080-954166; CP023474.1/977011-977097) with C at 5′ end and a complementary G at 3′ end flanking the putative TPP aptamer sequence: […] […] (SEQ ID NO: 1). Golden Gate cloning strategy (New England Biolabs, NEB) was used to clone the synthesized aptamer sequences into an intron-exon-intron cassette to replace the guanine aptamer in the G17 riboswitch cassette (see SEQ ID NO: 15 recited in WO 2016/126747, which is incorporated herein in its entirety) to generate riboswitch construct Luci-12C6-1.

**Q.** `C=CN(CCN(C)C)Cc1ccc2nccnc2c1` [compound 009] was tested. Which “activation of 12C6-1 and derivative riboswitches in regulating Luciferase expression (FIG. 4d)” value (from here on “activation”) did it give?
**A.** bind 12C6-1 and activate derivative riboswitches

**Q.** For `CN(C)CCNCc1ccc2nccnc2c1` [compound 011], which “activation” value is on record?
**A.** bind 12C6-1 and activate derivative riboswitches

**Q.** With `O=C(O)CCC(=O)Nc1ccc2nccnc2c1` [compound 003] as the molecule, how does the “activation” value read?
**A.** bind 12C6-1 and activate derivative riboswitches

**Q.** Which “activation” value does the source give for `O=C(CNc1cnccc1N1CCNCC1)Nc1ccc2nccnc2c1` [compound 005] here?
**A.** bind 12C6-1 and activate derivative riboswitches

**Q.** `Cl.c1cc(N2CCNCC2)c(CNCc2ccc3nccnc3c2)cn1` [compound 008] was tested. Which “activation” value did it give?
**A.** bind 12C6-1 and activate derivative riboswitches

Same assay, conditions: HEK 293 cells transfected with Luci-12C6-1

**Q.** Which luciferase expression response does the source give for `CC(=C(CCO)SSCC1CCCO1)N(C=O)Cc1cnc(C)nc1N` (stereo in doubt) [fursultiamine, reference compound] here?
**A.** induced luciferase gene expression in a dose-dependent manner

**Q.** `Cc1ncc(C[n+]2csc(CCO[P@](=O)(O)OP(=O)(O)O)c2C)c(N)n1` [TPP, Thiamine Pyrophosphate, reference compound] was tested. Which luciferase expression response did it give?
**A.** dose-dependent response

Test system: N5-12G6 riboswitch
Assay: Firefly luciferase assay, N5-12G6 riboswitch in HEK293 cells
Settings: 12G6 riboswitch, HEK293
Experimental: Transfection: 3.5×10^4 human embryonic kidney (HEK) 293 cells were plated in a 96-well flat bottom plate the day before transfection. Plasmid DNA (500 ng) was added to a tube or a 96-well U-bottom plate. Separately, TransIT-293 reagent (Mirus; 1.4 L) was added to 50 μL Optimum I media (Life Technologies) and allowed to sit for 5 minutes at room temperature (RT). Then, 50 μL of this diluted transfection reagent was added to the DNA, mixed, and incubated at RT for 20 min. Finally, 7 μL of this solution was added to a well of cells in the 96-well plate. Four hours after transfection, medium containing transfection solution was replaced by medium with either TPP or fursultiamine as aptamer ligands.
Firefly luciferase assay of cultured cells: Twenty-four hours after media change, plates were removed from the incubator, and equilibrated to RT for several minutes on a lab bench, then aspirated. Glo-lysis buffer (Promega, 100 μL, RT) was added, and the plates allowed to remain at RT for at least 5 minutes. Then, the well contents were mixed by 50 μL trituration, and 20 μL of each sample was mixed with 20 μL of bright-glo reagent (Promega) that had been diluted to 10% in glo-lysis buffer. 96 wells were spaced on an opaque white 384-well plate. Following a 5 min incubation at RT, luminescence was measured using a Tecan machine with 500 ms read time. The luciferase activity was expressed as mean arbitrary light units (ALU)±S.D., and fold induction was calculated as the quotient of the luciferase activity obtained from cells with TPP or analog compound treatment divided by the luciferase activity obtained from cells without TPP or analog compound treatment.

**Q.** Which “regulation of luciferase expression (FIG. 4e)” value does the source give for `c1cc(OC2CCNC2)c(NCc2ccc3nccnc3c2)cn1` (centres unmarked) [compound 018, 4-(Pyrrolidin-3-yloxy)-N-(quinoxalin-6-ylmethyl)pyridin-3-amine] here?
**A.** regulate expression in a dose-dependent fashion

Same assay, conditions: Homo sapiens, HEK293, read-out: Fold induction 2 μM (HEK), 12G6 riboswitch, luciferase, HEK293, 2 μM

**Q.** Which fold induction at 2 µM does the source give for `Clc1cncc(NCc2ccc3nccnc3c2)c1O[C@@H]1CCNC1` [compound 110, (R)-5-chloro-4-(pyrrolidin-3-yloxy)-N-(quinoxalin-6-ylmethyl)pyridin-3-amine] here?
**A.** 43.1

**Q.** How did the fold induction at 2 µM turn out when `Fc1cncc(NCc2ccc3nccnc3c2F)c1N1CCNCC1` [compound 079, 5-fluoro-N-((5-fluoroquinoxalin-6-yl)methyl)-4-(piperazin-1-yl)pyridin-3-amine] was run?
**A.** 4.4

**Q.** `Fc1cncc(NCc2ccc3nccnc3c2)c1N1CCCNCC1` [compound 092, 4-(1,4-diazepan-1-yl)-5-fluoro-N-(quinoxalin-6-ylmethyl)pyridin-3-amine] was tested. Which fold induction at 2 µM did it give?
**A.** 34.9

**Q.** For `Clc1cc2nccnc2cc1CNc1cncc(Cl)c1O[C@@H]1CCNC1` [compound 121, (R)-5-chloro-N-((7-chloroquinoxalin-6-yl)methyl)-4-(pyrrolidin-3-yloxy)pyridin-3-amine], which fold induction at 2 µM is on record?
**A.** 28.2

**Q.** With `Fc1cncc(NCc2cc(F)c3nccnc3c2)c1N1CCNCC1` [compound 080, 5-fluoro-N-((8-fluoroquinoxalin-6-yl)methyl)-4-(piperazin-1-yl)pyridin-3-amine] as the molecule, how does the fold induction at 2 µM read?
**A.** 31.2

**Q.** How did the fold induction at 2 µM turn out when `Fc1cc(CNc2cnccc2N2CCCNCC2)cc2nccnc12` [compound 088, 4-(1,4-diazepan-1-yl)-N-((8-fluoroquinoxalin-6-yl)methyl)pyridin-3-amine] was run?
**A.** 2.6

**Q.** Which fold induction at 2 µM does the source give for `Cc1cncc(NCc2ccc3nccnc3c2)c1N1CCN[C@@H](C)C1` [compound 104, (S)-5-methyl-4-(3-methylpiperazin-1-yl)-N-(quinoxalin-6-ylmethyl)pyridin-3-amine] here?
**A.** 33.3

**Q.** How did the fold induction at 2 µM turn out when `Clc1cc2nccnc2cc1CNc1cnccc1N1C[C@@H]2C[C@H]1CN2` [compound 097, 4-((1S,4S)-2,5-diazabicyclo[2.2.1]heptan-2-yl)-N-((7-chloroquinoxalin-6-yl)methyl)pyridin-3-amine] was run?
**A.** 2.6

**Q.** How did the fold induction at 2 µM turn out when `C[C@H]1CN(c2ccncc2NCc2cc(Cl)c3nccnc3c2)CCN1` [compound 101, (S)—N-((8-chloroquinoxalin-6-yl)methyl)-4-(3-methylpiperazin-1-yl)pyridin-3-amine] was run?
**A.** 2.2

**Q.** For `Fc1c(CNc2cncc(Cl)c2N2CCNCC2)ccc2nccnc12` [compound 078, 5-chloro-N-((5-fluoroquinoxalin-6-yl)methyl)-4-(piperazin-1-yl)pyridin-3-amine], which fold induction at 2 µM is on record?
**A.** 6.1

**Q.** For `C[C@@H]1CNCCN1c1ccncc1NCc1cc2nccnc2cc1Cl` [compound 062, (R)—N-((7-chloroquinoxalin-6-yl)methyl)-4-(2-methylpiperazin-1-yl)pyridin-3-amine], which fold induction at 2 µM is on record?
**A.** 8

**Q.** `c1cc(OC2CNC2)c(NCc2ccc3nccnc3c2)cn1` [compound 022, 4-(Azetidin-3-yloxy)-N-(quinoxalin-6-ylmethyl)pyridin-3-amine] was tested. Which fold induction at 2 µM did it give?
**A.** 43.2

**Q.** Which fold induction at 2 µM does the source give for `C[C@@H]1CNCCN1c1ccncc1NCc1cc(F)c2nccnc2c1` [compound 065, (R)—N-((8-fluoroquinoxalin-6-yl)methyl)-4-(2-methylpiperazin-1-yl)pyridin-3-amine] here?
**A.** 21.7

**Q.** How did the fold induction at 2 µM turn out when `C[C@H]1CN(c2ccncc2NCc2cc3nccnc3cc2F)CCN1` [compound 102, (S)—N-((7-fluoroquinoxalin-6-yl)methyl)-4-(3-methylpiperazin-1-yl)pyridin-3-amine] was run?
**A.** 13.6

Same assay, conditions: Homo sapiens, HEK293, read-out: Fold induction 25 μM (HEK), 12G6 riboswitch, luciferase, HEK293, 25 μM

**Q.** `O=C1CN(c2ccncc2NCc2ccc3nccnc3c2)CCN1` [compound 038, 4-(3-((quinoxalin-6-ylmethyl)amino)pyridin-4-yl)piperazin-2-one] was tested. Which fold induction at 25 µM did it give?
**A.** 2.9

**Q.** For `c1cc(N2C3CNCC2C3)c(NCc2ccc3nccnc3c2)cn1` [compound 031, 4-(3,6-diazabicyclo[3.1.1]heptan-6-yl)-N-(quinoxalin-6-ylmethyl)pyridin-3-amine], which fold induction at 25 µM is on record?
**A.** 17.9

**Q.** `c1cc(OC2CCNC2)c(NCc2ccc3nccnc3c2)cn1` (centres unmarked) [compound 018, 4-(Pyrrolidin-3-yloxy)-N-(quinoxalin-6-ylmethyl)pyridin-3-amine] was tested. Which fold induction at 25 µM did it give?
**A.** 286

**Q.** How did the fold induction at 25 µM turn out when `FC(F)(F)C1CNCCN1c1ccncc1NCc1ccc2nccnc2c1` (centres unmarked) [compound 037, N-(quinoxalin-6-ylmethyl)-4-(2-(trifluoromethyl)piperazin-1-yl)pyridin-3-amine] was run?
**A.** 6.1
